The values that follow come from publication PMC11826341 (PNAS Nexus, 2025).

Data set [1] relates to cultured hippocampal neurons.
Data set [2] has as its system cultured hippocampal neurons. To be noted: 48 h.
The subject of data set [3] is sEPSCNMDAR, synaptic NMDARs of cultured hippocampal neurons. Format: cell-based, rat.

Entries after “also recorded” stand apart in the source; their conditions may differ.

As to `N[C@H](CCCP(=O)(O)O)C(=O)O` [AP5, (2R)-amino-5-phosphonovaleric acid], the “Neuroprotection against STRO” value in data set [1] is given as “did not exert neuroprotection”.

As to `CN[C@H](CC(=O)O)C(=O)O` [NMDA, N-methyl-D-aspartate], the Neurons killed in data set [2] is approximately 80%.

For `CN[C@@H]1C[C@H]2O[C@@](C)([C@@H]1OC)n1c3ccccc3c3c4c(c5c6ccccc6n2c5c31)C(=O)NC4` [STRO, staurosporine], in data set [1], the Apoptotic neurons is 30.85% and the “Dead (apoptotic) neurons” value amounted to 76.99%.

With `CC(C(O)c1ccc(O)cc1)N1CCC(Cc2ccccc2)CC1` (centres unmarked) [ifenprodil], the “sEPSCNMDAR amplitude” value in data set [3] is reported as “strongly reduced amplitudes; also recorded: significantly less so in mature neurons”.
